From patent publication US10456365B2, “Methods and formulations for supporting and promoting bone health” (Primus Pharmaceuticals, Inc., priority 2016, dated 2019) come the findings set out here.

Molecules are shown by their SMILES.

What all share (type): cell-based, mouse (C57BL/6)
Assay [1] relates to differentiation of bone marrow cells to adipocytes. Nature of the assay: Adipogenesis in bone marrow cell culture. Here is the method:
C57BL/6 cells were prepared as 1×10^6/ml per well. These cells were cultured using 12-well plates in DMEM containing 10% FBS, 1% penicillin-steptomycin in the presence or absence of dexamethasone (1 μM/ml) and 3-isobutyl-q-methylxanthine (0.5 mM/ml) with either vehicle or β-Caryophyllene (0.1-100 μM). Medium was replaced containing insulin (10 μg/ml) without dexamethasone and 3-isobutyl-q-methylxanthine, with either the presence or absence of β-Caryophyllene (0.1-100 μM) for four days in CO2 incubator (37° C.). In other experiments, the cells were cultured without β-Caryophyllene for an additional four days. After culture, the adipocytes were stained and counted.
Bone marrow cells (1×10^6 cells/well/ml in 12-well plates) were cultured for 3 days in DMEM containing 10% FBS, 1% penicillin-streptomycin (P/S; 10,000 U/L) in the presence or absence of the differentiation medium (DM) [dexamethasone (1 μM/ml of medium) and 3-isobutyl-1-methylxanthine (IBMX; 0.5 mM/ml of medium)] with either vehicle or β-caryophyllene (0.1-100 μM). […] After culture, the medium was removed, and adipocytes were stained with Oil Red O. Adipocytes were counted by light microscopy. For quantification, the dye was extracted with 0.2 ml of isopropanol for 1 minute, and the absorbance (490 nm) was read using a Spectra Count microplate photometer.

A further assay concerns osteoclastogenesis. Kind of assay: Osteoclastogenesis in bone marrow cell culture. Here is the method:
C57BL/6 cells were prepared as 2×10^5/ml per well in 24-well plates. Cells were cultured in DMEM with 10% FBS and 1% penicillin-steptomycin in water-saturated atmosphere containing 5% CO2 and 95% air at 37° C. Cells were cultured with or without Tumor necrosis factor-α (5 ng/ml) for 3 days in the presence or absence of β-Caryophyllene (0.1-100 μM). Medium was replaced and cultures were maintained for an additional 4 days. In other experiments, the cells were cultured for 3 days and then placed in medium without β-Caryophyllene for an additional 4 days. Cells were stained with a marker enzyme of osteoclasts and washed with phosphate buffered sale solution and foxed with 10% neutralized formalin-phosphate for 10 minutes. The cells were stained with TRACP staining and incubated for 90 minutes. TRACP—positive cells containing three or more nuclei were counted as osteoclast-like cells.

The test system of assay [2] is osteoblastic mineralization. Nature of the assay: Mineralization in bone marrow culture. Here is the method:
C57BL/6 cells were prepared as 1×10^6/ml per well in 12-well plates. Cells were cultured in either the presence or absence of DMEM with mineralization medium containing ascorbic acid (100 μg/ml) and 4 mM β-glycerophosphate in DMEM with 10% FBS and 1% penicillin-steptomycin. […] After culture, the cells were washed and stained. After elution with 10% cetylpyridinium chloride solution, the absorbance at 570 nm on a microtiter plate reader.

Turning to `C=C1CC/C=C(\C)CC[C@@H]2[C@@H]1CC2(C)C` [β-Caryophyllene], the “differentiation of bone marrow cells to adipocytes” value in assay [1] (0.1-100 μM, 7 days, differentiation medium with or without insulin (FIG. 1)) was “suppressed differentiation of from bone marrow cells to adipocytes”; in assay [1] (C57BL/6 cells cultured for 7 days with or without β-Caryophyllene), “suppressed differentiation of bone marrow cells to adipocytes”. For the same compound, the osteoclastogenesis entry is recorded as “suppressed osteoclastogenesis” in the assay with osteoclastogenesis (7 days, medium containing Tumor necrosis factor-α) and “also exhibited suppression of osteoclastogenesis” in the assay on osteoclastogenesis (cultured in Tumor necrosis factor-α with β-Caryophyllene, then without β-Caryophyllene for additional 4 days). The osteoblastic mineralization entry in assay [2] (18 days, mineralization medium) is recorded as “stimulated osteoblastic mineralization”; in assay [2] (β-Caryophyllene for 7 days, then medium without it for additional 11 days) it was “Stimulation was also seen”.
